Experiments:
[1] = biological target: endogenous wild-type p53 protein (Homo sapiens, UniProt P04637); assay: Degradation of endogenous wild-type p53 protein in HCT116 cells, Western blot analysis; assay type: cell-based; set-up: an endogenous wild-type p53 protein and MDM2 protein in HCT116 cells (human large intestine cancer cells); endogenous in cells; host or cells: HCT116 cells; details: 48 hours after addition
Protocol: (§1) HCT116 cells were seeded in a 24-well plate at a cell density of 8×10^4 cells/well, and then cultured under conditions of 37° C. and 5 vol % CO2 for 16 hours.
(§2) After 16 hours from cell seeding, TIBC-CANDDY_MLN or TIBC was added to HCT116 cells as follows. As a medium, a serum-free medium (37° C.) in which 1 mass % L-glutamine solution (Sigma-Aldrich) was added to D-MEM (high D-glucose, phenol red, sodium pyruvate (Wako Pure Chemical Industries, Ltd.)) was used. It is noted that the L-glutamine solution was added immediately before use. A DMSO solution containing TIBC-CANDDY_MLN or TIBC was mixed with the medium so that the concentration of DMSO was 1 vol %, and added to each well at 500 μL/well, and cultured under conditions of 37° C. and 5 vol % CO2. As a control, DMSO was used.
(§3) The medium was removed 48 hours after addition of TIBC-CANDDY_MLN or TIBC, and then PBS was added to wash the cells. […]
(§4) After electrophoresis, proteins were transferred to a PVDF membrane (Immobion™-P, Millipore) under conditions of 100 V and 2 hours using a tank-type blotting device and a transfer buffer (25 mM Tris-HCl, 195 mM glycine, 0.01% SDS, 15% methanol). […] Subsequently, the membrane was treated with a chemiluminescence reagent Immobilon™ Western (Millipore), and then chemiluminescence was detected using a lumino image analyzer LAS-3000 (FUJIFILM Corporation).

MDM2 protein = biological target: T1, MDM2 protein (Homo sapiens, UniProt Q00987); assay: Degradation of endogenous MDM2 protein in HCT116 cells, Western blot analysis; assay type: cell-based; details: 48 hours after addition
T1 construct: an endogenous wild-type p53 protein and MDM2 protein in HCT116 cells (human large intestine cancer cells); endogenous in cells; host or cells: HCT116 cells
T1 sequence (Q00987 whole entry): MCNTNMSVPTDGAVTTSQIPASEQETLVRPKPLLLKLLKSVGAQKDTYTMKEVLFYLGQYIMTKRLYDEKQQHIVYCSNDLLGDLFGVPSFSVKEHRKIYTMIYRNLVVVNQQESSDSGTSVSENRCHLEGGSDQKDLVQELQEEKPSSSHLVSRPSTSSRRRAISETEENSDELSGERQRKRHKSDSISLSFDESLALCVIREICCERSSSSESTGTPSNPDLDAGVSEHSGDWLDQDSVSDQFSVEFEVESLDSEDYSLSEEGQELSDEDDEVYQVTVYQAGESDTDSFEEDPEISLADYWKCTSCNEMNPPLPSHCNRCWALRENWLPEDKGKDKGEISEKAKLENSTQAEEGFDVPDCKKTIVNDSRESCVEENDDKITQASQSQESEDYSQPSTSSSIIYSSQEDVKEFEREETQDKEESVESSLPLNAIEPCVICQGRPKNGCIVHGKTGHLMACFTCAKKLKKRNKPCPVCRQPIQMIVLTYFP
Protocol: as §1, §2, §3, §4

endogenous wild-type p53 protein, sequence (P04637 whole entry): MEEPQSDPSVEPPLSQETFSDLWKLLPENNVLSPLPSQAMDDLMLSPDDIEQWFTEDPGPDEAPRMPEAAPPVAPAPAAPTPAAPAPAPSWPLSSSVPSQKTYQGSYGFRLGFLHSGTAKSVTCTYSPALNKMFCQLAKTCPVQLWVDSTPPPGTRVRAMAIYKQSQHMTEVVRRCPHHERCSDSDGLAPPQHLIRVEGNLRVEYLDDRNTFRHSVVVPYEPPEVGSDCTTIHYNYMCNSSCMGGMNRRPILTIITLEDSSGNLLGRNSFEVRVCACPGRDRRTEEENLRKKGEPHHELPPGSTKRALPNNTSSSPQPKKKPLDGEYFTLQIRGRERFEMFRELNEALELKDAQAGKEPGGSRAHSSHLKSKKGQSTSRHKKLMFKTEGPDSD

amount of endogenous wild-type p53 protein [1]: reduced | amount of endogenous MDM2 protein (MDM2 protein): reduced
Structure (SMILES): CC(C)C[C@H](NC(=O)CNC(=O)c1cc(Cl)ccc1Cl)C(=O)NCCCCCCC(=O)Nc1ccc(C(=O)/C=C/c2ccc(I)cc2)cc1 [TIBC-CANDDY_MLN]
